{
  "source": "patent US20070015813A1",
  "about": "“Treatment of protein folding disorders” (QUEEN'S UNIVERSITY AT KINGSTON, priority 2005, published 2007)",
  "key": {"[1]": {"biological_target": "T1, Aβ1-40 (Homo sapiens, UniProt P05067)", "T1 construct": "Aβ^1-40 (AnaSpec, San Jose, Calif., lots 14212, 34862 and 34889); purchased AnaSpec, San Jose, Calif", "T1 sequence (P05067 672-711 limits assumed)": "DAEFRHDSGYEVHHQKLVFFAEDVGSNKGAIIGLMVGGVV", "test": "1H NMR binding of bi-aromatics to Aβ1-40", "settings": "100 μM Aβ1-40, 50 μM compound, D2O, 27° C.", "method": "Aβ^1-40 was dissolved in HFIP (1 mL) and sonicated (20 min) to disassemble any pre-formed aggregates. The HFIP was removed with a stream of Ar(g) and the waxy residue dissolved in 2.2 mL buffer (Tris-d11, 20 mM in D2O). Incubations (0.500 mL) were made directly in thin-walled NMR tubes, to which were added compound (2.5 μL, 10 mM in DMSO-d6) or vehicle. An identical incubation lacking Aβ^1-40 was used as compound reference. Spectra were obtained for Aβ^1-40 alone (100 μM), compound alone (50 μM) and for a mixture of both (100 μM Aβ^1-40, 50 μM compound). Spectra were recorded at 500 MHz and 27° C. (300K), with 674 scans obtained for each.\nFIG. 9 depicts ^1H NMR spectra identifying binding of 5-bromo-5′-carboxy-3,3′-bis-indolyl (0c) to Aβ^1-40. Spectra were obtained for Aβ^1-40 alone (100 μM, A), compound alone (50 μM, C) and for a mixture of both (100 μM Aβ^1-40, 50 μM compound, B). Spectra were recorded at 500 MHz and 27° C. (300K) in D2O containing 1% DMSO-d6, and 674 scans were obtained for each."}, "[2]": {"biological_target": "T1, Aβ1-40", "test": "Circular dichroism studies of Aβ1-40", "format": "biochemical", "settings": "40 μM Aβ1-40, 200 μM compound, pH 7.4, 37° C.", "method": "Aliquots (220 μL) of pretreated Aβ^1-40 (40 μM in 20 mM Tris-HCl, pH 7.4) were added directly to 1 mm quartz circular dichroism (CD) cells, followed by 2.2 μL compound (of varying concentration) in methanol or methanol alone (controls). Solutions were incubated at 37° C. for up to 6 days. CD scans were performed on a J-810 spectropolarimeter (obtained from Jasco Corporation, Tokyo, Japan) between 190 and 250 nm, with a resolution of 0.1 nm and bandwidth of 1 nm. Ten scans were obtained for each reading. Spectra had background CD of the buffer subtracted and were left unsmoothed. Readings were performed at 37° C.\nFIG. 6 depicts circular dichroism (CD) of Aβ^1-40 alone (A) and in the presence of 0j (B) and morin (C). Conditions: 40 μM Aβ^1-40, 200 μM compound (B,C), pH 7.4, Tris-HCl (20 mM), 1% MeOH. Prior to experiment, Aβ^1-40 pretreated with 1,1,1,3,3,3-hexafluoroisopropanol (HFIP)."}},
  "data": [
    {"compound": "O=C(O)c1ccc2[nH]cc(-c3c[nH]c4ccc(Br)cc34)c2c1", "note": "[0c, 3-(5-bromo-indol-3-yl)-indole-5-carboxylic Acid]", "values": [
      {"measurement": "binding to Aβ1-40 by 1H NMR (signal broadening)", "setting": "[1]", "result": "binding"},
      {"measurement": "random coil (RC)→β-sheet transition of Aβ1-40 by circular dichroism", "setting": "[2]", "result": "this transition was inhibited"}
    ]}
  ]
}
